Results on 23 compounds are retold here after US9226916B2, “Pyrrolidine derivatives” (HOFFMANN-LA ROCHE INC., priority 2009, dated 2016).

Structures are written as SMILES.

The first experiment has as its target T1, recombinant human NK3 receptor (Homo sapiens, UniProt P29371).
T1 construct: expressed in transfected cells; host or cells: HEK293 cells, transient expression; membranes
T1 sequence (P29371 1-465): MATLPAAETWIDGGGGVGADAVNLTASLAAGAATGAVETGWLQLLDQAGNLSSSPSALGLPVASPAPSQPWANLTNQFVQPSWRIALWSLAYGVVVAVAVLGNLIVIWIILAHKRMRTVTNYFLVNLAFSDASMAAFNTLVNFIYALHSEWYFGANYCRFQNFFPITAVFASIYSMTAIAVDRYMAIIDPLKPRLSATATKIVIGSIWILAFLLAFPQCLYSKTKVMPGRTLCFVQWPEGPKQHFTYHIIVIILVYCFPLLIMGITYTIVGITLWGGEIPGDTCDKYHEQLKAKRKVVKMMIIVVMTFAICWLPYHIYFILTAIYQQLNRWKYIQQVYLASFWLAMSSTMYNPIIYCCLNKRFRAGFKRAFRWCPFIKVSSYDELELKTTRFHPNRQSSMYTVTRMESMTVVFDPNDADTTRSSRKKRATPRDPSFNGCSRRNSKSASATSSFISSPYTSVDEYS
Nature of the experiment: [3H]SR142801 competition binding assay.
Conditions: not given
In general, Ki refers to the dissociation constant of the complex between target and ligand, obtained from inhibition or displacement. As for `Cc1cc([C@H]2CN(C(=O)C3CCN(C(=O)C4(C)CC4)CC3)C[C@@H]2N(C)C(=O)Oc2ccc(F)cc2)ccc1Cl` (racemic) [Example 71, rac-{(3R,4S)-4-(4-Chloro-3-methyl-phenyl)-1-[1-(1-methyl-cyclopropanecarbonyl)-piperidine-4-carbonyl]-pyrrolidin-3-yl}-methyl-carbamic acid 4-fluoro-phenyl ester], the Ki worked out at 1.8 nM. `CN(C(=O)Oc1ccc(F)cc1)[C@@H]1CN(C(=O)C2CCN(C(=O)C3(C)CC3)CC2)C[C@H]1c1ccc(F)cc1` [Example 129, {(3S,4R)-4-(4-Fluoro-phenyl)-1-[1-(1-methyl-cyclopropanecarbonyl)-piperidine-4-carbonyl]-pyrrolidin-3-yl}-methyl-carbamic acid 4-fluoro-phenyl ester]: the Ki is 13.7 nM. On to `CN(C(=O)Oc1ccc(Cl)cc1)[C@H]1CN(C(=O)C2CCN(CC3CC3)CC2)C[C@@H]1c1ccc(Cl)c(Cl)c1` (racemic) [Example 10, rac-[(3R,4S)-1-(1-Cyclopropylmethyl-piperidine-4-carbonyl)-4-(3,4-dichloro-phenyl)-pyrrolidin-3-yl]-methyl-carbamic acid 4-chloro-phenyl ester], for which the Ki was 1.5 nM. Same read-out and setting: the result for `CC(=O)N1CCC(C(=O)N2C[C@@H](N(C)C(=O)Oc3ccc(F)cc3)[C@H](c3ccc(Cl)c(Cl)c3)C2)CC1` [Example 283, [(3S,4R)-1-(1-Acetyl-piperidine-4-carbonyl)-4-(3,4-dichloro-phenyl)-pyrrolidin-3-yl]-methyl-carbamic acid 4-fluoro-phenyl ester] reads 0.7 nM; that for `CN(C(=O)Oc1ccc(F)cc1)[C@@H]1CN(C(=O)C2CCN(C(=O)C3(C(F)(F)F)CCC3)CC2)C[C@H]1c1ccc(Cl)cc1` [Example 252, {(3S,4R)-4-(4-Chloro-phenyl)-1-[1-(1-trifluoromethyl-cyclobutanecarbonyl)-piperidine-4-carbonyl]-pyrrolidin-3-yl}-methyl-carbamic acid 4-fluoro-phenyl ester], 2.7 nM. Still for that read-out and setting: the result for `CN(C(=O)Oc1ccc(F)cc1)[C@@H]1CN(C(=O)C2CCC(CO)CC2)C[C@H]1c1ccc(Cl)cc1` (stereo partly drawn) [Example 116, [(3S,4R)-4-(4-Chloro-phenyl)-1-(4-hydroxymethyl-cyclohexanecarbonyl)-pyrrolidin-3-yl]-methyl-carbamic acid 4-fluoro-phenyl ester] reads 10 nM.

Take `CN(C(=O)Oc1ccc(F)cc1)[C@@H]1CN(C(=O)C2CCN(c3ccc(F)cn3)CC2)C[C@H]1c1ccc(Cl)c(F)c1` [Example 311, [(3S,4R)-4-(4-Chloro-3-fluoro-phenyl)-1-(5′-fluoro-3,4,5,6-tetrahydro-2H-[1,2′]bipyridinyl-4-carbonyl)-pyrrolidin-3-yl]-methyl-carbamic acid 4-fluoro-phenyl ester]: the Ki was 0.9 nM.

Regarding `CN(C(=O)Oc1ccc(F)cc1)[C@@H]1CN(C(=O)C2CCN(c3ccc(C#N)cn3)CC2)C[C@H]1c1ccc(Cl)cc1` [Example 94, [(3S,4R)-4-(4-Chloro-phenyl)-1-(5′-cyano-3,4,5,6-tetrahydro-2H-[1,2′]bipyridinyl-4-carbonyl)-pyrrolidin-3-yl]-methyl-carbamic acid 4-fluoro-phenyl ester], the Ki came out at 0.2 nM.

Regarding `CN(C(=O)Oc1ccccc1Cl)[C@@H]1CN(C(=O)C2CCN(c3ccc(C#N)cn3)CC2)C[C@H]1c1ccc(Cl)cc1` [Example 213, [(3S,4R)-4-(4-Chloro-phenyl)-1-(5′-cyano-3,4,5,6-tetrahydro-2H-[1,2′]bipyridinyl-4-carbonyl)-pyrrolidin-3-yl]-methyl-carbamic acid 2-chloro-phenyl ester], the Ki was 7.2 nM.

For `CN(C(=O)OC1CC(F)(F)C1(F)F)[C@@H]1CN(C(=O)C2CCN(C(=O)C3(C)CC3)CC2)C[C@H]1c1ccc(Cl)cc1` (stereo partly drawn) [Example 175, {(3S,4R)-4-(4-Chloro-phenyl)-1-[1-(1-methyl-cyclopropanecarbonyl)-piperidine-4-carbonyl]-pyrrolidin-3-yl}-methyl-carbamic acid 2,2,3,3-tetrafluorocyclobutyl ester], the Ki stood at 36 nM. As to `CN(C(=O)Oc1ccc(F)cc1)[C@@H]1CN(C(=O)C2CCN(C(=O)C3(C)CC3)CC2)C[C@H]1c1ccc(Cl)cc1` [Example 39, {(3S,4R)-4-(4-Chloro-phenyl)-1-[1-(1-methyl-cyclopropanecarbonyl)-piperidine-4-carbonyl]-pyrrolidin-3-yl}-methyl-carbamic acid 4-fluoro-phenyl ester], the Ki came to 11 nM. As to `CN(C(=O)Oc1ccc(F)cc1)[C@@H]1CN(C(=O)C2CCN(c3ncc(C#N)cn3)CC2)C[C@H]1c1ccc(Cl)cc1` [Example 192, {(3S,4R)-4-(4-Chloro-phenyl)-1-[1-(5-cyano-pyrimidin-2-yl)-piperidine-4-carbonyl]-pyrrolidin-3-yl}-methyl-carbamic acid 4-fluoro-phenyl ester], the Ki amounted to 3.6 nM. The same measure, in the same setting: the result for `CN(C(=O)Oc1ccc(F)cc1)[C@@H]1CN(C(=O)C2CCNC2)C[C@H]1c1ccc(Cl)cc1` (stereo partly drawn) [Example 168, [(3S,4R)-4-(4-Chloro-phenyl)-1-(pyrrolidine-3-carbonyl)-pyrrolidin-3-yl]-methyl-carbamic acid 4-fluoro-phenyl ester] reads 98.4 nM; that for `Cc1ccc(OC(=O)N(C)[C@@H]2CN(C(=O)C3CCN(C(=O)C4(C)CC4)CC3)C[C@H]2c2ccc(Cl)c(Cl)c2)cc1` [Example 17, {(3S,4R)-4-(3,4-Dichloro-phenyl)-1-[1-(1-methyl-cyclopropanecarbonyl)-piperidine-4-carbonyl]-pyrrolidin-3-yl}-methyl-carbamic acid p-tolyl ester], 0.7 nM; that for `Cc1ccnc(N2CCC(C(=O)N3C[C@@H](N(C)C(=O)Oc4ccc(F)cc4)[C@H](c4ccc(Cl)cc4)C3)CC2)n1` [Example 167, {(3S,4R)-4-(4-Chloro-phenyl)-1-[1-(4-methyl-pyrimidin-2-yl)-piperidine-4-carbonyl]-pyrrolidin-3-yl}-methyl-carbamic acid 4-fluoro-phenyl ester], 4.9 nM. On the same count and under the same terms, to `CN(C(=O)Oc1ccc(F)cc1)[C@H]1CN(C(=O)C2CCNCC2)C[C@@H]1c1ccc(Cl)c(Cl)c1` (racemic) [Example 72, rac-[(3R,4S)-4-(3,4-Dichloro-phenyl)-1-(piperidine-4-carbonyl)-pyrrolidin-3-yl]-methyl-carbamic acid 4-fluoro-phenyl ester] belongs 21.2 nM; to `Cc1cc(OC(=O)N(C)[C@@H]2CN(C(=O)C3CCN(C(=O)C4(C)CC4)CC3)C[C@H]2c2ccc(Cl)c(Cl)c2)cc(C)n1` [Example 294, {(3S,4R)-4-(3,4-Dichloro-phenyl)-1-[1-(1-methyl-cyclopropanecarbonyl)-piperidine-4-carbonyl]-pyrrolidin-3-yl}-methyl-carbamic acid 2,6-dimethyl-pyridin-4-yl ester], 11.2 nM; to `CN(C(=O)Oc1ccc(F)cc1)[C@H]1CN(C(=O)C2CCN(C(=O)C3(C)CC3)CC2)C[C@@H]1c1ccc(Cl)cc1` [Example 38, {(3R,4S)-4-(4-Chloro-phenyl)-1-[1-(1-methyl-cyclopropanecarbonyl)-piperidine-4-carbonyl]-pyrrolidin-3-yl}-methyl-carbamic acid 4-fluoro-phenyl ester], 42 nM. The same measure, in the same setting: to `CN(C(=O)Oc1ccc(F)cc1)[C@H]1CN(C(=O)C2CCN(C(=O)OC(C)(C)C)CC2)C[C@@H]1c1ccc(Cl)c(Cl)c1` (racemic) [Example 66, rac-4-{(3S,4R)-3-(3,4-Dichloro-phenyl)-4-[(4-fluoro-phenoxycarbonyl)-methyl-amino]-pyrrolidine-1-carbonyl}-piperidine-1-carboxylic acid tert-butyl ester] belongs 0.8 nM.

The same experiment, now with this note: hNK-3 receptor affinity; membranes from HEK293 cells transiently expressing recombinant human NK3 receptor; [3H]SR142801; Cheng-Prussoff; read-out: Data Ki.
For `CN(C(=O)OCC(F)(F)F)[C@@H]1CN(C(=O)C2CCN(c3ccc(C#N)cn3)CC2)C[C@H]1c1ccc(Cl)cc1` [Example 158, [(3S,4R)-4-(4-Chloro-phenyl)-1-(5′-cyano-3,4,5,6-tetrahydro-2H-[1,2′]bipyridinyl-4-carbonyl)-pyrrolidin-3-yl]-methyl-carbamic acid 2,2,2-trifluoro-ethyl ester], the Ki was determined as 12.5 nM.

For the compound `CN(C(=O)OCCC(F)(F)F)[C@H]1CN(C(=O)C2CCN(c3ccc(C#N)cn3)CC2)C[C@@H]1c1ccc(Cl)cc1` [Example 145, [(3R,4S)-4-(4-Chloro-phenyl)-1-(5′-cyano-3,4,5,6-tetrahydro-2H-[1,2′]bipyridinyl-4-carbonyl)-pyrrolidin-3-yl]-methyl-carbamic acid 3,3,3-trifluoro-propyl ester], the Ki is 56.9 nM. Still for that read-out and setting: to `CN(C(=O)OCCC1CC1)[C@H]1CN(C(=O)C2CCN(C(=O)C3(C)CC3)CC2)C[C@@H]1c1ccc(Cl)cc1` (stereo in doubt) [Example 54, rac-{(3R,4S)-4-(4-Chloro-phenyl)-1-[1-(1-methyl-cyclopropanecarbonyl)-piperidine-4-carbonyl]-pyrrolidin-3-yl}-methyl-carbamic acid 2-cyclopropyl-ethyl ester] belongs 26.4 nM.

Still in this experiment, the particulars now being: read-out: Data Ki.
As for `CN(C(=O)Oc1cc(F)cc(F)c1)[C@@H]1CN(C(=O)C2CCN(c3ccc(C#N)nc3)CC2)C[C@H]1c1ccc(Cl)cc1` [Example 210, [(3S,4R)-4-(4-Chloro-phenyl)-1-(6′-cyano-3,4,5,6-tetrahydro-2H-[1,3]bipyridinyl-4-carbonyl)-pyrrolidin-3-yl]-methyl-carbamic acid 3,5-difluoro-phenyl ester], the Ki came out at 4.6 nM.
